Biological target: T1, Lipoxygenase in Kaninchen-PMN-Leukozyten (Oryctolagus cuniculus, UniProt G1SNX0)
T1 construct: Die polymorphkernigen Leukozyten des Menschen und des Kaninchens metabolisieren die Arachidonsäure; endogenous in cells; host or cells: rabbit polymorphonuclear (PMN) leukocytes
T1 sequence (G1SNX0 1-674): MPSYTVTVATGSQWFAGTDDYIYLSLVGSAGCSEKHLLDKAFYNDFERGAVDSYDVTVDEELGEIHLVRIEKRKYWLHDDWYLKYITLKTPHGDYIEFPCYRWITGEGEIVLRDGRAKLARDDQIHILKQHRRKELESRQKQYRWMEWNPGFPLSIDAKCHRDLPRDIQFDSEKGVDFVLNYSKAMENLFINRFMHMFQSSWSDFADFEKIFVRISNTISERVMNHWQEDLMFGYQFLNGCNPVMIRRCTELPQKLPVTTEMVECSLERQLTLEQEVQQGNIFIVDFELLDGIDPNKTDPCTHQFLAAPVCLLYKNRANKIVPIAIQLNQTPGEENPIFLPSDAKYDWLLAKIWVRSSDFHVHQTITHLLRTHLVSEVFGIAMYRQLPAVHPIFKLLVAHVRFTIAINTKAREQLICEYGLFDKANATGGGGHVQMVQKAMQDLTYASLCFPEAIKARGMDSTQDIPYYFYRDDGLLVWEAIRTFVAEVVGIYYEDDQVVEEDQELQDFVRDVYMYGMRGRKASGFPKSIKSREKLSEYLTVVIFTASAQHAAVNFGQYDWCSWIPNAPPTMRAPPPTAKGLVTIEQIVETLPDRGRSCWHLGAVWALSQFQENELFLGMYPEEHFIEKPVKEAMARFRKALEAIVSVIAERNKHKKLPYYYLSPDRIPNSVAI
Test: Inhibition of lipoxygenase (release of 5-HETE and leukotriene B4) in rabbit PMN leukocytes
Format: cell-based
Source text: Analog den vorstehenden Ausführungen lassen sich die lipoxygenasehemmenden Eigenschaften der erfindungsgemäßen Verbindungen auch an Leukozyten nachweisen.
Die polymorphkernigen Leukozyten des Menschen und des Kaninchens metabolisieren die Arachidonsäure zu 5-Hydroxy-5,8,11,14-eikosatetraensäure (5-HETE) und Leukotrien B4 (5S, 12R-Dihydroxy-6 cis, 8,10-trans-14 ciseikosatetraensäure). Die Hemmung der Freisetzung von 5-HETE und Leukotrien B4 aus den Leukozyten stellt ein Maß für den lipoxygenasehemmenden Effekt der erfindungsgemäßen Verbindungen dar. (Vergl. Tab. 1) Der Test mit den Humanleukozyten wurde nach Borgeat und Samuelsson (j. Biol. Chem. 254; 2643, 1979 und Proc. Natl. Acad. Sci. USA, 76, 2148 1979), mit Kaninchenleukozyten nach Walker und .Parish (Inter. Archs. Allergy appl. Immun. 66, 83, 1981) durchgeführt.

SMILES	Minimale Konzentration für die Hemmung der Lipoxygenase in Kaninchen-PMN-Leukozyten
CC1=C(C(=O)OCCC#N)Sc2ccccc2N1 [Beispiel 1, 3-Methyl-4H-1,4-benzothiazin-2-carbonsäure-(2-cyanethyl)-ester]	5x10^-7 - 10^-6 g/ml
COC(=O)C1=C(C)Nc2ccccc2S1 [Beispiel 2]	5x10^-7 - 10^-6 g/ml
CCOC(=O)C1=C(CC)Nc2ccccc2S1 [Beispiel 4]	5x10^-7 - 10^-6 g/ml
CC1=C(C(=O)OC2CCCCC2)Sc2ccccc2N1 [Beispiel 5]	5x10^-7 - 10^-6 g/ml
CSCCOC(=O)C1=C(C)Nc2ccccc2S1 [Beispiel 8]	5x10^-7 - 10^-6 g/ml
CCCCOC(=O)C1=C(C)Nc2ccccc2S1 [Beispiel 9]	10^-6 g/ml
CC(=O)C1=C(C)Nc2ccccc2S1 [Beispiel 11]	10^-6 g/ml
CC1=C(C(=O)OCCc2ccccc2)Sc2ccccc2N1 [Beispiel 12]	10^-6 g/ml
CC1=C(C(=O)OCc2ccccc2)Sc2ccccc2N1 [Beispiel 13]	5x10^-7 - 10^-6 g/ml
COc1ccc2c(c1)SC(C(=O)OCCC#N)=C(C)N2 [Beispiel 28]	10^-6 g/ml
CSCCOC(=O)C1=C(C)Nc2ccc(C)cc2S1 [Beispiel 29]	10^-6 g/ml
CCOC(=O)C1=CNc2ccc(OC)cc2S1 [Beispiel 32]	10^-6 g/ml
CCN1C=C(C(=O)O)Sc2cc([N+](=O)[O-])ccc21 [Beispiel 37]	5e-06 g/mL
CCN1C=C(C(=O)OC)Sc2cc([N+](=O)[O-])ccc21 [Beispiel 40]	5e-06 g/mL

From patent EP0100527A1, “4H-1,4-benzothiazines for use as medicaments” (BAYER AG, priority 1982, dated 1984)
